# Test results from article PMC4072025 (Cancer chemotherapy and pharmacology, 2013).
# Entries after “also recorded” stand apart in the source; their conditions may differ.
# Legend:
# [1] = test system: ER-positive breast cancer; settings: ER-positive patients with breast cancer; cited from earlier work
# [2] = cited from earlier work
# [3] = Steady-state everolimus PK in whole blood, alone and with lapatinib; assay type: in vivo, human; settings: for Everolimus Tmax % change: p=0.06; for Tmax: Everolimus Tmax, mean (95% CI)
# [4] = Phase I/II trial of everolimus and imatinib; cited from earlier work
# [5] = Part I dose escalation to define MTD and DLTs of lapatinib plus everolimus; assay type: in vivo, human; settings: once daily po
# [6] = Steady-state lapatinib PK in plasma, alone and with everolimus
# [7] = Day 19 with lapatinib vs Day 7 alone
# [8] = Day 19 with everolimus vs Day 7 alone
smiles,measurement,setting,value
C=C1C[C@@H]2[C@H](CC[C@]3(C)C(=O)CC[C@@H]23)[C@@]2(C)C=CC(=O)C=C12 [exemestane],Progression-free survival,[1],2.8 months
CO[C@H]1C[C@@H]2CC[C@@H](C)[C@@](O)(O2)C(=O)C(=O)N2CCCC[C@H]2C(=O)O[C@H]([C@H](C)C[C@@H]2CC[C@@H](OCCO)[C@H](OC)C2)CC(=O)[C@H](C)/C=C(\C)[C@@H](O)[C@@H](OC)C(=O)[C@H](C)C[C@H](C)/C=C/C=C/C=C/1C [everolimus],"Systemic exposure to everolimus, higher with erlotinib than without",[2],17%
same,Everolimus AUC 0-inf % change,[3]; [7],+26%
same,Everolimus Cmax % change,[3]; [7],−5%
same,Everolimus Tmax % change,[3]; [7],44%
same,Everolimus Tmax % change,"[3]; Day 19 with lapatinib vs Day 7 alone, listed as Everolimus",+44%
same,Mean everolimus CL/F at steady-state,[3]; alone,19 (95% CI 14–24) L/hr
same,AUC,"[3]; human, whole blood, oral, 5 mg",348 ng·h/mL
same,AUC(0-inf),"[3]; human, whole blood, oral, 5 mg",348 ng·h/mL
same,Cmax,"[3]; human, whole blood, oral, 5 mg",37 ng/mL
same,Tmax,"[3]; human, whole blood, oral, 5 mg, Day 7, everolimus alone",1.6 h
same,Tmax,"[3]; human, whole blood, oral, Day 19, everolimus + lapatinib",2.3 h
same,Mean everolimus CL/F at steady-state,[3]; in combination with lapatinib,14 (95% CI 11–18) L/hr
same,Decrease of mean everolimus CL/F,"[3]; in combination with lapatinib vs alone, p=0.08",25%
same,PK differences when everolimus was given in combination with lapatinib,[3]; paired t-test,did not reach statistical significance
same,Increase of everolimus Cmax by imatinib,[4],2.2 fold
same,Increase of everolimus mean AUC by imatinib,[4],3.7 fold
same,Maximum tolerated dose (MTD) of everolimus in the combination,[5]; combined with lapatinib 1250 mg,5 mg
C#Cc1cccc(Nc2ncnc3cc(OCCOC)c(OCCOC)cc23)c1 [erlotinib],Pharmacokinetics of erlotinib with or without everolimus,[2],similar
CS(=O)(=O)CCNCc1ccc(-c2ccc3ncnc(Nc4ccc(OCc5cccc(F)c5)c(Cl)c4)c3c2)o1 [lapatinib],Lapatinib Cmax,"[6]; Day 19, lapatinib + everolimus, steady state, plasma, mean (95% CI)",2520 (2020–3130) μg/L
same,Lapatinib AUC 0-inf % change,[6]; [8],essentially unchanged
same,Lapatinib Cmax % change,[6]; [8],+7%
same,Lapatinib Tmax % change,[6]; [8],+33%
same,Lapatinib AUC 0-inf % change,"[6]; Day 19 with everolimus vs Day 7 alone, listed as Lapatinib",+10%
same,Mean lapatinib Ctrough at steady-state,[6]; alone,800 (95% CI 600–1120) μg/L
same,AUC,"[6]; human, plasma, oral",33900 ng·h/mL
same,AUC,"[6]; human, plasma, oral, 1250 mg",37400 ng·h/mL
same,AUC(0-inf),"[6]; human, plasma, oral, 1250 mg",33900 ng·h/mL
same,Mean lapatinib Ctrough at steady-state,[6]; in combination with everolimus,1060 (95% CI 760–1470) μg/L
same,Differences in steady-state lapatinib PK with or without everolimus co-administration,[6]; paired t-test,no significant influence; also recorded: not statistically significant
same,Maximum tolerated dose (MTD) of lapatinib in the combination,[5]; combined with everolimus 5 mg,1250 mg
